Results from patent US20200138854A1, “Method of Detecting and Quantifying Bile Acid from Saliva” (Ironwood Pharmaceuticals, Inc., priority 2017, published 2020).
Values joined by “and” are separate entries in the source; they are usually repeats but may differ in a detail not shown here. Equal entries are not always repeated. Where two headings read alike, the source gives them in different places. Marks after values point to notes of the source that are not given here.

Assays:
[1] = Frozen (−20° C.) short-term stability in cholestyramine-treated human saliva; settings: for % Bias / Concentration, Mean / Concentration: −20° C.; for Concentration: individual values; for Concentration QC-LLOQ / Concentration QC-Mid / Concentration QC-High: run 33
Procedure: Quality control samples for the evaluation of accuracy and precision and for run acceptance were prepared on the day of sample extraction. QC samples prepared in cholestyramine-treated saliva are to be prepared in small volumes for analysis. Stability for these QC samples would be limited to short-term storage (i.e., 2 days) whereas untreated human saliva would be evaluated for long-term storage.
For stability in cholestyramine-treated human saliva, samples were prepared by spiking cholestyramine-treated human saliva with each analyte at the QC-LLOQ, QC-Low, QC-Mid and QC-High levels. The samples were stored in a −20° C. freezer. After 1 day and 2 days of storage, each sample was extracted in replicates of four for analysis.

[2] = Long-term (1 month at −20° C. and −80° C.) stability in untreated human saliva; settings: for % Bias QC-High / % CV QC-High / Difference from Fresh (%) QC-High / Mean concentration QC-High / Concentration QC-High / Fresh QCs (Batch 34) Mean at Time Zero, QC-High: untreated human saliva; for Concentration QC-High: run 35; for % Bias / Concentration, Mean / Difference from Fresh (%) / Concentration: 1 month; for Concentration: individual values
Procedure: (§1) For long-term stability in untreated human saliva, samples were prepared by spiking untreated human saliva with each analyte at the QC-Low and QC-High levels. The samples were stored in a −20° C. freezer and in a −80° C. freezer. After 1 month of storage, each sample was extracted in replicates of three for analysis.
(§2) A 100-μL aliquot of sample (calibration standards, quality controls, blanks, and stability samples) was transferred into a 96 well plate, according to a pre-defined layout. […] The plates were covered, vortex-mixed and then centrifuged for 5 minutes at 3200 rpm. Supernatants (350 μL each) were transferred into the corresponding wells of a clean 96 well plate and evaporated to dryness under nitrogen in a Turbovap set to 40° C. The dried residue in each well was reconstituted with 75 μL of 50:50 (v:v) methanol:water.

[3] = 1 month
Procedure: as §1, §2

[4] = 1 Day, QC-High, nominal 80.0 ng/mL
[5] = 1 Day, QC-LLOQ, nominal 0.500 ng/mL
[6] = 1 Day, QC-Mid, nominal 8.00 ng/mL
[7] = 2 Days, QC-High, nominal 80.0 ng/mL
[8] = 2 Days, QC-LLOQ, nominal 0.500 ng/mL
[9] = 2 Days, QC-Mid, nominal 8.00 ng/mL
[10] = 1 month −20° C. storage, nominal 80.0 ng/mL
[11] = 1 month −80° C. storage, nominal 80.0 ng/mL
[12] = reference for −20° C. storage, nominal 80.0 ng/mL
[13] = reference for −80° C. storage, nominal 80.0 ng/mL
[14] = −20° C. Storage, QC-High, nominal 80.0 ng/mL
[15] = −80° C. Storage, QC-High, nominal 80.0 ng/mL
[16] = 1 Day at −20° C., nominal 0.500 ng/mL
[17] = 1 Day at −20° C., nominal 8.00 ng/mL
[18] = 1 Day at −20° C., nominal 80.0 ng/mL
[19] = 2 Days at −20° C., nominal 0.500 ng/mL
[20] = 2 Days at −20° C., nominal 8.00 ng/mL
[21] = 2 Days at −20° C., nominal 80.0 ng/mL

C[C@H](CCC(=O)NCCS(=O)(=O)O)[C@H]1CC[C@H]2[C@@H]3CC[C@@H]4C[C@H](O)CC[C@]4(C)[C@H]3C[C@H](O)[C@]12C [Taurodeoxycholic Acid, Taurodeoxycholic acid]
Short-term stability in cholestyramine-treated human saliva ([1]; human): up to 2 days | Stability in Treated Human Saliva ([1]; human): 2 days | % Bias [1, 4]: −1.3% | Concentration, Mean [1, 4]: 79.0 ng/mL | Concentration [1, 4]: 78.6 ng/mL and 82.0 ng/mL and 76.9 ng/mL and 78.5 ng/mL | % Bias [1, 5]: 10.3% | Concentration, Mean [1, 5]: 0.551 ng/mL | Concentration [1, 5]: 0.539 ng/mL and 0.570 ng/mL and 0.536 ng/mL and 0.560 ng/mL | % Bias [1, 6]: −2.5% | Concentration, Mean [1, 6]: 7.80 ng/mL | Concentration [1, 6]: 7.71 ng/mL and 7.90 ng/mL and 7.81 ng/mL and 7.77 ng/mL | % Bias [1, 7]: −4.4% | Concentration, Mean [1, 7]: 76.5 ng/mL | Concentration [1, 7]: 73.7 ng/mL and 76.5 ng/mL and 76.2 ng/mL and 79.5 ng/mL | % Bias [1, 8]: 17.2% | Concentration, Mean [1, 8]: 0.586 ng/mL | Concentration [1, 8]: 0.596 ng/mL and 0.592 ng/mL and 0.555 ng/mL and 0.601 ng/mL | % Bias [1, 9]: −2.9% | Concentration, Mean [1, 9]: 7.77 ng/mL | Concentration [1, 9]: 7.19 ng/mL and 8.02 ng/mL and 8.13 ng/mL and 7.72 ng/mL | % Bias QC-High [2, 10]: −4.7% | % CV QC-High [2, 10]: 3.5% | Difference from Fresh (%) QC-High [2, 10]: −5.5% | Mean concentration QC-High [2, 10]: 76.2 ng/mL | Concentration QC-High [2, 10]: 73.7 ng/mL and 79.0 ng/mL and 76.0 ng/mL | % Bias QC-High [2, 11]: −2.7% | % CV QC-High [2, 11]: 4.4% | Difference from Fresh (%) QC-High [2, 11]: −3.6% | Mean concentration QC-High [2, 11]: 77.8 ng/mL | Concentration QC-High [2, 11]: 80.2 ng/mL and 79.4 ng/mL and 73.9 ng/mL | Long-term stability in untreated human saliva ([2]; at 80° C. (sic)): up to 1 month | Stability in Untreated Human Saliva ([2]; at −20° C.): 1 Month | Stability in Untreated Human Saliva ([2]; at −80° C.): 1 Month | Fresh QCs (Batch 34) Mean at Time Zero, QC-High [2, 12]: 80.7 ng/mL | Fresh QCs (Batch 34) Mean at Time Zero, QC-High [2, 13]: 80.7 ng/mL

CC(CCC(=O)NCC(=O)O)C1CCC2C3CCC4CC(O)CCC4(C)C3CC(O)C12C (centres unmarked) [Glycodeoxycholic Acid, Glycodeoxycholic acid]
Short-term stability in cholestyramine-treated human saliva ([1]; human): up to 2 days | Stability in Treated Human Saliva ([1]; human): 2 days | % Bias [1, 4]: −5.0% | Concentration, Mean [1, 4]: 76.0 ng/mL | Concentration [1, 4]: 76.0 ng/mL and 78.9 ng/mL and 73.6 ng/mL and 75.5 ng/mL | % Bias [1, 5]: −1.1% | Concentration, Mean [1, 5]: 0.495 ng/mL | Concentration [1, 5]: 0.500 ng/mL and 0.472 ng/mL and 0.488 ng/mL and 0.519 ng/mL | % Bias [1, 6]: −5.0% | Concentration, Mean [1, 6]: 7.60 ng/mL | Concentration [1, 6]: 7.43 ng/mL and 8.14 ng/mL and 7.61 ng/mL and 7.21 ng/mL | % Bias [1, 7]: −6.1% | Concentration, Mean [1, 7]: 75.2 ng/mL | Concentration [1, 7]: 74.0 ng/mL and 73.3 ng/mL and 75.6 ng/mL and 77.7 ng/mL | % Bias [1, 8]: 15.0% | Concentration, Mean [1, 8]: 0.575 ng/mL | Concentration [1, 8]: 0.654^a ng/mL and 0.589 ng/mL and 0.551 ng/mL and 0.599 ng/mL | % Bias [1, 9]: 2.5% | Concentration, Mean [1, 9]: 8.20 ng/mL | Concentration [1, 9]: 7.91 ng/mL and 7.87 ng/mL and 8.54 ng/mL and 8.49 ng/mL | Long-term stability in untreated human saliva [3]: up to 1 month | Stability in Untreated Human Saliva [3]: 1 Month | % Bias [2, 14]: −3.9% | Concentration, Mean [2, 14]: 76.9 ng/mL | Difference from Fresh (%) [2, 14]: 0.7% | Concentration [2, 14]: 75.5 ng/mL and 75.9 ng/mL and 79.2 ng/mL | % Bias [2, 15]: −0.1% | Concentration, Mean [2, 15]: 79.9 ng/mL | Difference from Fresh (%) [2, 15]: 4.7% | Concentration [2, 15]: 81.9 ng/mL and 80.0 ng/mL and 77.8 ng/mL | Fresh QCs (Batch 34) Mean at Time Zero ([2]; QC-High, nominal 80.0 ng/mL): 76.3 ng/mL

C[C@H](CCC(=O)NCCS(=O)(=O)O)[C@H]1CC[C@H]2[C@@H]3[C@H](O)C[C@@H]4C[C@H](O)CC[C@]4(C)[C@H]3C[C@H](O)[C@]12C [Taurocholic Acid, Taurocholic acid]
% Bias QC-LLOQ [1, 16]: −1.1% | % CV QC-LLOQ [1, 16]: 2.4% | Mean concentration QC-LLOQ [1, 16]: 0.495 ng/mL | Concentration QC-LLOQ [1, 16]: 0.481 ng/mL and 0.509 ng/mL and 0.491 ng/mL and 0.498 ng/mL | % Bias QC-Mid [1, 17]: −8.4% | % CV QC-Mid [1, 17]: 1.9% | Mean concentration QC-Mid [1, 17]: 7.33 ng/mL | Concentration QC-Mid [1, 17]: 7.32 ng/mL and 7.29 ng/mL and 7.51 ng/mL and 7.18 ng/mL | % Bias QC-High [1, 18]: −6.6% | % CV QC-High [1, 18]: 2.7% | Mean concentration QC-High [1, 18]: 74.7 ng/mL | Concentration QC-High [1, 18]: 74.9 ng/mL and 77.2 ng/mL and 72.3 ng/mL and 74.5 ng/mL | % Bias QC-LLOQ [1, 19]: 11.2% | % CV QC-LLOQ [1, 19]: 4.1% | Mean concentration QC-LLOQ [1, 19]: 0.556 ng/mL | Concentration QC-LLOQ [1, 19]: 0.538 ng/mL and 0.563 ng/mL and 0.537 ng/mL and 0.585 ng/mL | % Bias QC-Mid [1, 20]: −6.7% | % CV QC-Mid [1, 20]: 4.8% | Mean concentration QC-Mid [1, 20]: 7.46 ng/mL | Concentration QC-Mid [1, 20]: 6.98 ng/mL and 7.47 ng/mL and 7.55 ng/mL and 7.85 ng/mL | % Bias QC-High [1, 21]: −6.7% | % CV QC-High [1, 21]: 2.1% | Mean concentration QC-High [1, 21]: 74.7 ng/mL | Concentration QC-High [1, 21]: 73.1 ng/mL and 75.1 ng/mL and 73.8 ng/mL and 76.6 ng/mL | Short-term stability in cholestyramine-treated human saliva ([1]; at −20° C.): up to 2 days | Stability in Treated Human Saliva ([1]; at −20° C., cholestyramine-treated human saliva): 2 days | % Bias QC-High [2, 10]: −2.9% | % CV QC-High [2, 10]: 3.0% | Difference from Fresh (%) QC-High [2, 10]: −4.5% | Mean concentration QC-High [2, 10]: 77.7 ng/mL | Concentration QC-High [2, 10]: 75.1 ng/mL and 78.3 ng/mL and 79.7 ng/mL | % Bias QC-High [2, 11]: −2.3% | % CV QC-High [2, 11]: 3.7% | Difference from Fresh (%) QC-High [2, 11]: −4.0% | Mean concentration QC-High [2, 11]: 78.1 ng/mL | Concentration QC-High [2, 11]: 81.2 ng/mL and 77.8 ng/mL and 75.4 ng/mL | Fresh QCs (Batch 34) Mean at Time Zero, QC-High [2, 12]: 81.4 ng/mL | Fresh QCs (Batch 34) Mean at Time Zero, QC-High [2, 13]: 81.4 ng/mL
